What was measured:
[1] = Irritation test (reaction time method) against commercially available baby and children's shampoos; conditions: 5% in water (reference)
Procedure: Cleansing agents 1 and 2 were compared in a test (reaction time method) with various commercially available baby and children's shampoos. The shampoos were diluted down to 50% with water in each case.
A 5% sodium laureth sulfate solution served as a reference.
A Q value of >1.20 denotes an irritating effect; a Q value of <0.8 denotes slight irritation.

[2] = pH of the diluted test solution; format: physicochemical; conditions: 5% in water

**Q.** What does the source list for “sodium laureth sulfate [Reference (SLES, 5% in water)]”?
**A.** Reaction time method [Q] [1]: 1.00; pH [2]: 7.2

— patent US9216147B2, “Mild cosmetic cleansing composition” (Henkel AG & Co. KGaA, priority 2011, dated 2015)
